Source: patent US20160175241A1, “COMPOSITION FOR SKIN ANTI-AGEING TREATMENT” (POLICHEM SA, priority 2013, published 2016)

Experiments:
[1] = system: skin structure and firmness; conditions: two concentrations, 0.1% and 1%; cited from earlier work
[2] = system: Reactive oxygen species (ROS) measured on keratinocytes after exposure to Ultraviolet light A (UVA); assay: ROS formation in keratinocytes after UVA exposure (DCA fluorescence); format: cell-based; conditions: Homo sapiens, Keratinocyte, light or radiation study, 0.15 mg/ml (positive control)
Description: To the test the different antioxidant activity of the composition according to the Example 1 versus the Comparative Compositions 2-5 of the Example 2, they were tested at different concentrations (0.500-0.016 mg/ml) on Reactive oxygen species (ROS) measured on keratinocytes after exposure to Ultraviolet light A (UVA), with and without the tested sample, evaluating the cell viability after UVA stress by Neutral red uptake (NRU) test: cell survival assay using cultured human keratinocytes in monolayer cultures with and without the tested sample.
Human primary keratinocytes come from paediatric foreskins, with ethic committee's permission, from pre-planned routine surgery. The epidermis was separated from dermis by incubation with […] and trypsinized to generate single cell suspension.
Keratinocytes were cultivated in Dulbecco's modified Eagle's and Ham's F12 media (3:1) enriched with 10% foetal calf serum (v/v) and specific enrichments.
These cells multiply in culture until a cell monolayer is reached. […] Once a confluence of 60-70% has been reached, fresh medium is added with scalar dilutions of the tested sample. Non-treated cells are used as negative controls. At this stage the cell cultures were treated with different dilutions of the test compound and of the controls to obtain final concentrations ranging from 0.5 to 0.016 mg/ml. For each dilution, three replicate tests were performed. The product was dissolved in the culture medium. […] The cell vitality is determined after UVA exposure and without UV exposure.
After having exposed the cells to the tested sample, the cell culture medium is removed and the cells are washed in PBS. […] DCA is reacting with free radicals in the medium, originating a fluorescent derivative, and the fluorimeter reading allows obtaining a quantitative data related to the ROS content in the cells.
After suitable incubation, the DCA solution has been discharged and the cells have then been exposed for different times to UVA irradiation and soon after read in the fluorimeter, as described (Toxicol. Letters 1997-93:47-54).

SMILES | improving skin structure and firmness [1] | inhibition at 150 µg/mL ([2]; 4′ UVA (1 J/cm2)) | inhibition at 150 µg/mL ([2]; 8′ UVA (2 J/cm2)) | inhibition at 150 µg/mL ([2]; 12′ UVA (3 J/cm2))
COc1cc(O)c(CC=C(C)C)c(O)c1C(=O)/C=C/c1ccc(O)cc1 [xanthohumol] | resulted efficacious | – | – | –
O=C1O[C@H]([C@@H](O)CO)C(O)=C1O [Vitamin C] | – | 19.6% | 13.4% | 14.8%
